What follows are compounds tested against human adenosine A2b receptor (Homo sapiens (Human), UniProt P29275) (assay: Cellular in vitro reporter gene test for A2b receptor activity (CHO-K1, CRE-luciferase, NECA stimulation)). Conditions: recombinant CHO-K1 cell line, CRE-luciferase reporter, antagonism of EC50 concentration of NECA; in some cases means of several determinations, rounded to two significant figures; read-out: A2b receptor IC50.
Sequence of human adenosine A2b receptor (P29275 whole entry): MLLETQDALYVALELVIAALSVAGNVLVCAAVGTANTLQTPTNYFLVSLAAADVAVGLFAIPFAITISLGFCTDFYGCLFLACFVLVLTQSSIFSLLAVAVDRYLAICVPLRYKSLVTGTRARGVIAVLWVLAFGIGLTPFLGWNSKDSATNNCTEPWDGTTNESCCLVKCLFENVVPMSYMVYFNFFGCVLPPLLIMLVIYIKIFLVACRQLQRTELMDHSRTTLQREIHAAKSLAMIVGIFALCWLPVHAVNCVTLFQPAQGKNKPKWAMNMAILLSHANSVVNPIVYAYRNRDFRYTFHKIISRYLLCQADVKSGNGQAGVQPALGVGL
Assay type: cell-based
Method in brief: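 CHO-K1 cells with CRE-driven luciferase; antagonists co-incubated with NECA at its EC50, determined in a pre-experiment on each test day. Luciferase read by luminescence 3 h after NECA addition.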
`CCn1c(=O)c2c(C)c(C(C)N3CCNC3=O)sc2n(CCC(F)(F)F)c1=O` (single isomer, unassigned) [Example 503, 3-Ethyl-5-methyl-6-[1-(2-oxoimidazolidin-1-yl)ethyl]-1-(3,3,3-trifluoropropyl)thieno[2,3-d]pyrimidine-2,4(1H,3H)-dione] was tested, and the IC50 was 39 nM. Work on `CCn1c(=O)c2c(C)c(C(C)N3CCNC3=O)sc2n(CCC(F)(F)F)c1=O` (single isomer, unassigned) [Example 504, 3-Ethyl-5-methyl-6-[1-(2-oxoimidazolidin-1-yl)ethyl]-1-(3,3,3-trifluoropropyl)thieno[2,3-d]pyrimidine-2,4(1H,3H)-dione] yielded an IC50 of 2000 nM. `COCCn1c(=O)n(C(C)C(F)(F)F)c(=O)c2c(C)c(CN3CCNC3=NC#N)sc21` (single isomer, unassigned) [Example 510, [1-{[1-(2-Methoxyethyl)-5-methyl-2,4-dioxo-3-(1,1,1-trifluoropropan-2-yl)-1,2,3,4-tetrahydrothieno[2,3-d]pyrimidin-6-yl]methyl}imidazolidin-2-ylidene]cyanamide] was tested, and the IC50 was 47 nM. `COCCn1c(=O)n(C(C)C(F)(F)F)c(=O)c2c(C)c(CN3CCNC3=NC#N)sc21` (single isomer, unassigned) [Example 511, [1-{[1-(2-Methoxyethyl)-5-methyl-2,4-dioxo-3-(1,1,1-trifluoropropan-2-yl)-1,2,3,4-tetrahydrothieno[2,3-d]pyrimidin-6-yl]methyl}imidazolidin-2-ylidene]cyanamide] gave an IC50 of 110 nM. `COCCn1c(=O)n(C(C)C(F)(F)F)c(=O)c2c(C)c(CN3CCNC3=NC(=O)OC)sc21` (single isomer, unassigned) [Example 514, Methyl [1-{[1-(2-methoxyethyl)-5-methyl-2,4-dioxo-3-(1,1,1-trifluoropropan-2-yl)-1,2,3,4-tetrahydrothieno[2,3-d]pyrimidin-6-yl]methyl}imidazolidin-2-ylidene]carbamate] was tested, and the IC50 was 32 nM. `COCCn1c(=O)n(C(C)C(F)(F)F)c(=O)c2c(C)c(CN3CCNC3=NC(=O)OC)sc21` (single isomer, unassigned) [Example 515, Methyl [1-{[1-(2-methoxyethyl)-5-methyl-2,4-dioxo-3-(1,1,1-trifluoropropan-2-yl)-1,2,3,4-tetrahydrothieno[2,3-d]pyrimidin-6-yl]methyl}imidazolidin-2-ylidene]carbamate] was tested, and the IC50 was 24 nM. For `CCn1c(=O)c2c(C)c(CN3CCNC3=O)sc2n(CC2CC2(F)F)c1=O` (single isomer, unassigned; enantiomer 1) [Example 55, 1-[(2,2-Difluorocyclopropyl)methyl]-3-ethyl-5-methyl-6-[(2-oxoimidazolidin-1-yl)methyl]thieno[2,3-d]pyrimidine-2,4(1H,3H)-dione (Enantiomer 1)], the IC50 was 1.3 nM. `CCn1c(=O)c2c(C)c(CN3CCNC3=O)sc2n(CC(C)OC)c1=O` (single isomer, unassigned; enantiomer 1) [Example 63, 3-Ethyl-1-(2-methoxypropyl)-5-methyl-6-[(2-oxoimidazolidin-1-yl)methyl]thieno[2,3-d]pyrimidine-2,4(1H,3H)-dione (Enantiomer 1)] gave an IC50 of 39 nM. `CCn1c(=O)c2c(C)c(CN3CCNC3=O)sc2n(CC2CCCO2)c1=O` (single isomer, unassigned; enantiomer 1) [Example 69, 3-Ethyl-5-methyl-6-[(2-oxoimidazolidin-1-yl)methyl]-1-(tetrahydrofuran-2-ylmethyl)thieno[2,3-d]pyrimidine-2,4(1H,3H)-dione (Enantiomer 1)] gave an IC50 of 9.8 nM. `CCn1c(=O)c2c(C)c(CN3CCNC3=O)sc2n(CC2CCOC2)c1=O` (single isomer, unassigned; enantiomer 1) [Example 74, 3-Ethyl-5-methyl-6-[(2-oxoimidazolidin-1-yl)methyl]-1-(tetrahydrofuran-3-ylmethyl)thieno[2,3-d]pyrimidine-2,4(1H,3H)-dione (Enantiomer 1)] showed an IC50 of 36 nM. Work on `CCn1c(=O)c2c(C)c(CN3CCNC3=O)sc2n(CC2CC2(F)F)c1=O` (single isomer, unassigned; enantiomer 2) [Example 56, 1-[(2,2-Difluorocyclopropyl)methyl]-3-ethyl-5-methyl-6-[(2-oxoimidazolidin-1-yl)methyl]thieno[2,3-d]pyrimidine-2,4(1H,3H)-dione (Enantiomer 2)] yielded an IC50 of 8 nM. For `CCn1c(=O)c2c(C)c(CN3CCNC3=O)sc2n(CC(C)OC)c1=O` (single isomer, unassigned; enantiomer 2) [Example 64, 3-Ethyl-1-(2-methoxypropyl)-5-methyl-6-[(2-oxoimidazolidin-1-yl)methyl]thieno[2,3-d]pyrimidine-2,4(1H,3H)-dione (Enantiomer 2)], the IC50 was 86 nM. With `CCn1c(=O)c2c(C)c(CN3CCNC3=O)sc2n(CC2CCO2)c1=O` (single isomer, unassigned; enantiomer 2) [Example 67, 3-Ethyl-5-methyl-1-(oxetan-2-ylmethyl)-6-[(2-oxoimidazolidin-1-yl)methyl]thieno[2,3-d]pyrimidine-2,4(1H,3H)-dione (Enantiomer 2)] the IC50 was 29 nM. Work on `CCn1c(=O)c2c(C)c(CN3CCNC3=O)sc2n(CC2CCCO2)c1=O` (single isomer, unassigned; enantiomer 2) [Example 70, 3-Ethyl-5-methyl-6-[(2-oxoimidazolidin-1-yl)methyl]-1-(tetrahydrofuran-2-ylmethyl)thieno[2,3-d]pyrimidine-2,4(1H,3H)-dione (Enantiomer 2)] yielded an IC50 of 21 nM. For `CCn1c(=O)c2c(C)c(CN3CCNC3=O)sc2n(CC2CCOC2)c1=O` (single isomer, unassigned; enantiomer 2) [Example 75, 3-Ethyl-5-methyl-6-[(2-oxoimidazolidin-1-yl)methyl]-1-(tetrahydrofuran-3-ylmethyl)thieno[2,3-d]pyrimidine-2,4(1H,3H)-dione (Enantiomer 2)], the IC50 was 40 nM. Work on `COCCn1c(=O)n(CCc2ccccc2)c(=O)c2c(C)c(CN3CCC3=O)sc21` [Example 1, 1-(2-Methoxyethyl)-5-methyl-6-[(2-oxoazetidin-1-yl)methyl]-3-(2-phenylethyl)thieno[2,3-d]pyrimidine-2,4(1H,3H)-dione] yielded an IC50 of 9.7 nM. With `CCn1c(=O)c2c(C)c(CN3CCC3=O)sc2n(CCC(F)(F)F)c1=O` [Example 2, 3-Ethyl-5-methyl-6-[(2-oxoazetidin-1-yl)methyl]-1-(3,3,3-trifluoropropyl)thieno[2,3-d]pyrimidine-2,4(1H,3H)-dione] the IC50 was 11 nM. For `CCn1c(=O)c2c(C)c(CN3CCCC3=O)sc2n(CCC(F)(F)F)c1=O` [Example 4, 3-Ethyl-5-methyl-6-[(2-oxopyrrolidin-1-yl)methyl]-1-(3,3,3-trifluoropropyl)thieno[2,3-d]pyrimidine-2,4(1H,3H)-dione], the IC50 was 5.2 nM. For `COCCn1c(=O)n(CCc2ccccc2)c(=O)c2c(C(F)(F)F)c(CN3CCCC3=O)sc21` [Example 5, 1-(2-Methoxyethyl)-6-[(2-oxopyrrolidin-1-yl)methyl]-3-(2-phenylethyl)-5-(trifluoromethyl)thieno[2,3-d]pyrimidine-2,4(1H,3H)-dione], the IC50 was 8.4 nM. `CCn1c(=O)c2c(C)c(CN3CC[C@@H](O)C3=O)sc2n(CCOC)c1=O` [Example 7, 3-Ethyl-6-{[(3R)-3-hydroxy-2-oxopyrrolidin-1-yl]methyl}-1-(2-methoxyethyl)-5-methylthieno[2,3-d]pyrimidine-2,4(1H,3H)-dione] was tested, and the IC50 was 33 nM. With `CCn1c(=O)c2c(C)c(CN3Cc4ccccc4C3=O)sc2n(CCC(F)(F)F)c1=O` [Example 11, 3-Ethyl-5-methyl-6-[(1-oxo-1,3-dihydro-2H-isoindol-2-yl)methyl]-1-(3,3,3-trifluoropropyl)thieno[2,3-d]pyrimidine-2,4(1H,3H)-dione] the IC50 was 19 nM. In the case of `CCn1c(=O)c2c(C)c(CN3CCCCC3=O)sc2n(CCC(F)(F)F)c1=O` [Example 12, 3-Ethyl-5-methyl-6-[(2-oxopiperidin-1-yl)methyl]-1-(3,3,3-trifluoropropyl)thieno[2,3-d]pyrimidine-2,4(1H,3H)-dione], the IC50 is reported as 12 nM. In the case of `COCCn1c(=O)n(CCc2ccccc2)c(=O)c2c(C)c(CN3CCOCC3=O)sc21` [Example 13, 1-(2-Methoxyethyl)-5-methyl-6-[(3-oxomorpholin-4-yl)methyl]-3-(2-phenylethyl)thieno[2,3-d]pyrimidine-2,4(1H,3H)-dione], the IC50 is reported as 17 nM. Compound `CCn1c(=O)c2c(C)c(CN3CCOCC3=O)sc2n(CCC(F)(F)F)c1=O` [Example 14, 3-Ethyl-5-methyl-6-[(3-oxomorpholin-4-yl)methyl]-1-(3,3,3-trifluoropropyl)thieno[2,3-d]pyrimidine-2,4(1H,3H)-dione] has an IC50 of 19 nM. `COCCn1c(=O)n(CCc2ccccc2)c(=O)c2c(C)c(CN3CCCS3(=O)=O)sc21` [Example 15, 6-[(1,1-Dioxido-1,2-thiazolidin-2-yl)methyl]-1-(2-methoxyethyl)-5-methyl-3-(2-phenylethyl)thieno[2,3-d]pyrimidine-2,4(1H,3H)-dione] showed an IC50 of 3.1 nM. `CCn1c(=O)c2c(C)c(CN3CCCS3(=O)=O)sc2n(CCC(F)(F)F)c1=O` [Example 16, 6-[(1,1-Dioxido-1,2-thiazolidin-2-yl)methyl]-3-ethyl-5-methyl-1-(3,3,3-trifluoropropyl)thieno[2,3-d]pyrimidine-2,4(1H,3H)-dione] showed an IC50 of 2.7 nM. In the case of `CCn1c(=O)c2c(C)c(CN3CCCS3(=O)=O)sc2n(CCOC)c1=O` [Example 17, 6-[(1,1-Dioxido-1,2-thiazolidin-2-yl)methyl]-3-ethyl-1-(2-methoxyethyl)-5-methylthieno[2,3-d]pyrimidine-2,4(1H,3H)-dione], the IC50 is reported as 16 nM. In the case of `COCCn1c(=O)n(CCc2ccccc2)c(=O)c2c(C(F)(F)F)c(CN3CCCS3(=O)=O)sc21` [Example 18, 6-[(1,1-Dioxido-1,2-thiazolidin-2-yl)methyl]-1-(2-methoxyethyl)-3-(2-phenylethyl)-5-(trifluoromethyl)thieno[2,3-d]pyrimidine-2,4(1H,3H)-dione], the IC50 is reported as 14 nM.

— patent publication US10428083B2, “Heterocyclylmethyl-thienouracile as antagonists of the adenosine-A2B-receptor” (BAYER PHARMA AKTIENGESELLSCHAFT, priority 2015, dated 2019)
